Several values for one entry are separate records, joined by “and”; a condition that tells them apart may be missing. Equal entries are not always repeated. Some results are limits rather than exact numbers.

From paper PMC9656787, “Design, Synthesis and Biological Evaluation of Novel 1,3,5-Triazines: Effect of Aromatic Ring Decoration on Affinity to 5-HT7 Receptor” (International Journal of Molecular Sciences, 2022) come the findings set out here.

For one series, the target named is T1, 5-HT2A receptor (Homo sapiens, UniProt P28223).
T1 construct: host or cells: cell membranes from cultured cells
T1 sequence (P28223 whole entry): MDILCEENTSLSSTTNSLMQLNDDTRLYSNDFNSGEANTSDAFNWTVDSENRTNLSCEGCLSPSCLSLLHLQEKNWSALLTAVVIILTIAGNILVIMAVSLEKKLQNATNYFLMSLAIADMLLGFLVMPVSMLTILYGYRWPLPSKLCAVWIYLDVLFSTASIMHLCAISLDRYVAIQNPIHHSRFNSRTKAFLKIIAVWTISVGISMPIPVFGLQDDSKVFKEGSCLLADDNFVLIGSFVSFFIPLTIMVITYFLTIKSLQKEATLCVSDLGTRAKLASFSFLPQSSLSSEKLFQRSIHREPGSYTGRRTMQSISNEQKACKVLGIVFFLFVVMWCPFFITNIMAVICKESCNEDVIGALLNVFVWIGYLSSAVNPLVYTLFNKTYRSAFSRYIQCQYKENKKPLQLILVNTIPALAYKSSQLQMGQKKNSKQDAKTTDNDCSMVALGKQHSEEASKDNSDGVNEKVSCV
Briefly: Radioligand binding assay, 5-HT2A receptor. The settings on record: mean ± SD, triplicate at 7 concentrations, Cheng-Prusoff; read-out: Affinity Ki 5-HT2AR. The procedure: (§1) The affinity of the studied compounds to 5-HT1A, 5-HT2A, 5-HT6, 5-HT7, and D2 receptors was evaluated by a radioligand assay, as reported previously (Table 1). Each compound was tested in triplicate at seven concentrations (from 0.1 nM to 100 µM). Inhibition constants (Ki) were calculated from the Cheng–Prusoff equation [23].
(§2) The cell culture, cell membranes, and radioligand binding assays were performed in accordance with standard protocols.

The target in the next series is T2, 5-HT7 receptor (Homo sapiens, UniProt P34969).
T2 construct: host or cells: cell membranes from cultured cells
T2 sequence (P34969 1-432 limits assumed): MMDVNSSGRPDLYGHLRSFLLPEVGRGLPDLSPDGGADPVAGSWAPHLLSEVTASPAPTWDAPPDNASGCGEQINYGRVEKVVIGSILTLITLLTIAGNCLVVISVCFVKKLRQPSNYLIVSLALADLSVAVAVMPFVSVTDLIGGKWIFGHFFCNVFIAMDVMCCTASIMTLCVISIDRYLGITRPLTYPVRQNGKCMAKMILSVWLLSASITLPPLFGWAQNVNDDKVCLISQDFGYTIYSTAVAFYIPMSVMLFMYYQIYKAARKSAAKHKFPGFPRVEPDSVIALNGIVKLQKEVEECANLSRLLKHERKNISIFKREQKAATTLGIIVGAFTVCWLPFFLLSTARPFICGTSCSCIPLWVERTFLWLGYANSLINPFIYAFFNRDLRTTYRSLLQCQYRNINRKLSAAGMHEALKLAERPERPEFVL
Kind of series: Radioligand binding assay, 5-HT7 receptor. The settings on record: for activity with respect to 5-HT7R (in words): SAR discussion of radioligand data; for Ki: mean ± SD, triplicate at 7 concentrations, Cheng-Prusoff, read-out: Affinity Ki 5-HT7R. Here is the method:
as §1, §2

The target of a further series is T3, 5-HT1A receptor (Homo sapiens, UniProt P08908).
T3 construct: host or cells: cell membranes from cultured cells
T3 sequence (P08908 1-422): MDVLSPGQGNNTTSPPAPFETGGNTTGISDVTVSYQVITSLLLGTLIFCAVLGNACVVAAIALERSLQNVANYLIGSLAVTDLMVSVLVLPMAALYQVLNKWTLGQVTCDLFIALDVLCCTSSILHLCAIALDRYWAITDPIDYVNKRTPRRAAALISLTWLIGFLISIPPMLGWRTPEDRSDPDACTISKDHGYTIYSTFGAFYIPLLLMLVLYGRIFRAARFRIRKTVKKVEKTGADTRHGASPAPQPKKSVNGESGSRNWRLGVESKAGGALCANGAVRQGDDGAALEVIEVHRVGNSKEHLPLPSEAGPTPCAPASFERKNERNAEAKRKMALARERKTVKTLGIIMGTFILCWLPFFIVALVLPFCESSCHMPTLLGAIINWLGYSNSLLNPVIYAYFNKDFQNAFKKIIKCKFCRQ
Kind of series: Radioligand binding assay, 5-HT1A receptor. The settings on record: mean ± SD, triplicate at 7 concentrations, Cheng-Prusoff; read-out: Affinity Ki 5-HT1AR. Here is the method: as §1, §2

The target in another series is T4, 5-HT6 receptor (Homo sapiens, UniProt P50406).
T4 construct: host or cells: cell membranes from cultured cells
T4 sequence (P50406 whole entry): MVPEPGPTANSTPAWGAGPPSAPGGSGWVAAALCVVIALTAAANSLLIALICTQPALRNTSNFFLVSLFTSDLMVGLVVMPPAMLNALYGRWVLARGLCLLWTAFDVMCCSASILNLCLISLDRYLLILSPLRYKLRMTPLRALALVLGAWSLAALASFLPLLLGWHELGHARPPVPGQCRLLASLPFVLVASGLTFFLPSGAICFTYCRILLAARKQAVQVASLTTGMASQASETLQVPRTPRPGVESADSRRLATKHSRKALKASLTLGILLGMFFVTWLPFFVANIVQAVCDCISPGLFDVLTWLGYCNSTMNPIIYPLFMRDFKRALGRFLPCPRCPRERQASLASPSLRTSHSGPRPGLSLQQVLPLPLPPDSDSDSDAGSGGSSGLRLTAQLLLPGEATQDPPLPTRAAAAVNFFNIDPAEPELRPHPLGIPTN
Kind of series: Radioligand binding assay, 5-HT6 receptor. To be noted: mean ± SD, triplicate at 7 concentrations, Cheng-Prusoff; read-out: Affinity Ki 5-HT6R. The procedure:
as §1, §2

The next series deals with T5, D2 receptor (Homo sapiens, UniProt P14416).
T5 construct: host or cells: cell membranes from cultured cells
T5 sequence (P14416 whole entry): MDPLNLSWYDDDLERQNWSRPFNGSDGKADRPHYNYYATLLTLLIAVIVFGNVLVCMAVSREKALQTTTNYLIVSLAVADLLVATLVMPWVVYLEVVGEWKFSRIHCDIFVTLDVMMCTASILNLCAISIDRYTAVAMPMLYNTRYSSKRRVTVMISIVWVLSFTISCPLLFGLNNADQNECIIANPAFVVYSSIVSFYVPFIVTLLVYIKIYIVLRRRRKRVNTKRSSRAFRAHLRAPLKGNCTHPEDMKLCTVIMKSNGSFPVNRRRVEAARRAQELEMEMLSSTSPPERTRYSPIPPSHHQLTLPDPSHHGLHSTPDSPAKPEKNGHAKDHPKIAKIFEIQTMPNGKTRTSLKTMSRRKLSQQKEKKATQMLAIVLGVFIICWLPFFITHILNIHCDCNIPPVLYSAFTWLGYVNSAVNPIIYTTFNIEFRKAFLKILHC
Briefly: Radioligand binding assay, D2 receptor. To be noted: mean ± SD, triplicate at 7 concentrations, Cheng-Prusoff; read-out: Affinity Ki D2R. Here is the method: as §1, §2

`Cl.N#Cc1ccc2[nH]cc(CCNc3nc(N)nc(NCCc4ccccc4)n3)c2c1` [Compound 1, 3-(2-((4-Amino-6-(Phenethylamino)-1,3,5-Triazin-2-yl)Amino)Ethyl)-1H-Indole-5-Carbonitrile Hydrochloride] came in with a melting point of 95 to 98 °C. The Ki on 5-HT2A receptor is 0.927 ± 0.927 µM. Also, at 5-HT7 receptor, the “activity with respect to 5-HT7R (in words)” value (“activity” for short) is “activity toward the 5-HT7 receptor being lost” and the Ki is 2.88 ± 0.351 µM. In addition, the Ki at 5-HT1A receptor amounted to 13 µM.

For the compound `Cl.Nc1nc(NCCc2ccccc2)nc(NCCc2c[nH]c3ccc(Br)cc23)n1` [Compound 3, N^2-(2-(5-Bromo-1H-Indol-3-yl)ethyl)-N^4-Phenethyl-1,3,5-Triazine-2,4,6-Triamine Hydrochloride], the melting point is 82 to 85 °C. Also, the Ki at 5-HT2A receptor is 0.942 ± 0.112 µM. The Ki on 5-HT6 receptor came out at 0.234 ± 0.027 µM. Besides, the Ki on 5-HT7 receptor stood at 0.126 ± 0.017 µM. Further, the Ki on 5-HT1A receptor is 11 µM.

`Cl.Nc1nc(NCCc2ccccc2)nc(NCCc2c[nH]c3ccc(Cl)cc23)n1` [Compound 4, N^2-(2-(5-Chloro-1H-Indol-3-yl)ethyl)-N^4-Phenethyl-1,3,5-Triazine-2,4,6-Triamine Hydrochloride] had a melting point of 106 to 108 °C. The Ki on 5-HT2A receptor worked out at 0.559 ± 0.041 µM. In addition, the Ki on 5-HT6 receptor was 0.702 ± 0.048 µM. For the same compound, the Ki on 5-HT7 receptor worked out at 0.481 ± 0.023 µM. Moreover, the Ki on 5-HT1A receptor turned out to be 3.91 ± 0.581 µM. In addition, the Ki at D2 receptor was determined as 14.5 µM.

Compound `COc1ccc2[nH]cc(CCNc3nc(N)nc(NCCc4ccccc4)n3)c2c1.Cl` [Compound 5, N^2-(2-(5-Methoxy-1H-Indol-3-yl)ethyl)-N^4-Phenethyl-1,3,5-Triazine-2,4,6-Triamine Hydrochloride] showed a melting point of 111 to 115 °C. Also, on 5-HT2A receptor, the Ki is 0.883 ± 0.108 µM. Moreover, the Ki on 5-HT6 receptor was 0.509 ± 0.033 µM. The Ki at 5-HT7 receptor was 0.629 ± 0.148 µM. Moreover, the Ki at 5-HT1A receptor stood at 3.13 ± 0.758 µM.

For `Cc1ccc2[nH]cc(CCNc3nc(N)nc(NCCc4ccccc4)n3)c2c1.Cl` [Compound 6, N^2-(2-(5-Methyl-1H-Indol-3-yl)ethyl)-N^4-Phenethyl-1,3,5-Triazine-2,4,6-Triamine Hydrochloride], the melting point is 118 to 121 °C. Also, the Ki on 5-HT2A receptor was found to be 0.835 ± 0.168 µM. The Ki at 5-HT6 receptor was determined as 0.714 ± 0.112 µM. Besides, the Ki on 5-HT7 receptor is 0.1 ± 0.015 µM. The Ki on 5-HT1A receptor worked out at 16.6 µM.

As for `Cl.Nc1nc(NCCNc2ccccc2Cl)nc(NCCc2c[nH]c3ccccc23)n1` [Compound 7, N^2-(2-(1H-Indol-3-yl)ethyl)-N^4-(2-((2-Chlorophenyl)amino)ethyl)-1,3,5-Triazine-2,4,6-Triamine Hydrochloride], the melting point was in the range of 105 to 108 °C. Further, on 5-HT2A receptor, the Ki was determined as 2.12 ± 0.352 µM. The Ki at 5-HT6 receptor amounted to 0.892 ± 0.144 µM. Moreover, at 5-HT7 receptor, the “activity” value is “moderately active” and the Ki worked out at 0.423 ± 0.037 µM. The Ki at 5-HT1A receptor amounted to 30.8 µM. For the same compound, on D2 receptor, the Ki amounted to 4.29 ± 1.03 µM.

The compound `Cl.Nc1nc(NCCNc2cccc(Cl)c2)nc(NCCc2c[nH]c3ccccc23)n1` [Compound 8, N^2-(2-(1H-Indol-3-yl)ethyl)-N^4-(2-((3-Chlorophenyl)amino)ethyl)-1,3,5-Triazine-2,4,6-Triamine Hydrochloride] showed a melting point of 77 to 82 °C. Further, the Ki at 5-HT2A receptor stood at 1.8 ± 0.264 µM. In addition, at 5-HT6 receptor, the Ki was determined as 4.02 ± 0.719 µM. Moreover, on 5-HT7 receptor, the “activity” value is recorded as “moderately active” and the inhibitory constant (Ki) turned out to be 0.131 ± 0.016 µM. The Ki at 5-HT1A receptor worked out at 15.6 µM. Further, the Ki on D2 receptor stood at 1.24 ± 0.257 µM.

`Cl.Nc1nc(NCCNc2ccc(Cl)cc2)nc(NCCc2c[nH]c3ccccc23)n1` [Compound 9, N^2-(2-(1H-Indol-3-yl)ethyl)-N^4-(2-((4-Chlorophenyl)amino)ethyl)-1,3,5-Triazine-2,4,6-Triamine Hydrochloride] registered a melting point of 97 to 100 °C. In addition, the Ki on 5-HT2A receptor is 2.7 ± 0.581 µM. Moreover, the Ki at 5-HT6 receptor amounted to 0.641 ± 0.084 µM. In addition, on 5-HT7 receptor, the “activity” value is reported as “active” and the Ki came out at 0.019 ± 0.004 µM. In addition, at 5-HT1A receptor, the Ki is 16.2 µM.

Regarding `Cl.Nc1nc(NCCNc2ccccc2F)nc(NCCc2c[nH]c3ccccc23)n1` [Compound 10, N^2-(2-(1H-Indol-3-yl)ethyl)-N^4-(2-((2-Fluorophenyl)amino)ethyl)-1,3,5-Triazine-2,4,6-Triamine Hydrochloride], the melting point lay in the range of 94 to 97 °C. Also, the Ki at 5-HT2A receptor was determined as 1.51 ± 0.362 µM. The Ki on 5-HT6 receptor is 0.982 ± 0.115 µM. For the same compound, on 5-HT7 receptor, the “activity” value is reported as “moderately active” and the Ki stood at 0.132 ± 0.009 µM. The Ki at 5-HT1A receptor worked out at 36.5 µM. Also, the Ki at D2 receptor worked out at 20.4 µM.

As to `COc1cccc(NCCNc2nc(N)nc(NCCc3c[nH]c4ccccc34)n2)c1.Cl` [Compound 14, N^2-(2-(1H-Indol-3-yl)ethyl)-N^4-(2-((3-Methoxyphenyl)amino)ethyl)-1,3,5-Triazine-2,4,6-Triamine Hydrochloride], the melting point lay within 140 to 143 °C. At 5-HT2A receptor, the Ki was determined as 2.45 ± 0.273 µM. For the same compound, the Ki at 5-HT6 receptor was 2.79 ± 0.342 µM. For the same compound, the Ki at 5-HT7 receptor amounted to 1.04 ± 0.081 µM. Further, the Ki at D2 receptor is 36 µM.

On to `COc1ccc(NCCNc2nc(N)nc(NCCc3c[nH]c4ccccc34)n2)cc1.Cl` [Compound 15, N^2-(2-(1H-Indol-3-yl)ethyl)-N^4-(2-((4-Methoxyphenyl)amino)ethyl)-1,3,5-Triazine-2,4,6-Triamine Hydrochloride], for which the melting point fell in the range of 150 to 153 °C. Besides, the Ki at 5-HT7 receptor is 0.756 ± 0.107 µM.

Take `Cl.Nc1nc(NCCc2c[nH]c3ccccc23)nc(NCCN2C(=O)c3ccccc3C2=O)n1` [Compound 16, 2-(2-((4-((2-(1H-Indol-3-yl)ethyl)amino)-6-Amino-1,3,5-Triazin-2-yl)amino)ethyl)isoindoline-1,3-Dione Hydrochloride]: the melting point is 136 to 138 °C. The Ki at 5-HT2A receptor turned out to be 22.4 µM. In addition, the Ki at 5-HT6 receptor was found to be 8.76 ± 1.76 µM. In addition, on 5-HT7 receptor, the Ki is > 1 µM and 21.6 µM. At D2 receptor, the Ki amounted to 13.3 µM.

For `Cl.Nc1nc(NCCc2c[nH]c3ccccc23)nc(NCCn2cnc3ccccc32)n1` [Compound 17, N^2-(2-(1H-Benzo[d]imidazol-1-yl)ethyl)-N^4-(2-(1H-Indol-3-yl)ethyl)-1,3,5-Triazine-2,4,6-Triamine Hydrochloride], the melting point fell in the range of 195 to 200 °C. In addition, at 5-HT2A receptor, the Ki was 11.1 µM. Moreover, the Ki at 5-HT6 receptor stood at 2.63 ± 0.427 µM. Moreover, at 5-HT7 receptor, the Ki came to 0.227 ± 0.037 µM. Besides, the Ki on 5-HT1A receptor is 63 µM.

`Cc1nc2ccccc2n1CCNc1nc(N)nc(NCCc2c[nH]c3ccccc23)n1.Cl` [Compound 18, N^2-(2-(1H-indol-3-yl)ethyl)-N^4-(2-(2-methyl-1H-benzo[d]imidazol-1-yl)ethyl)-1,3,5-triazine-2,4,6-triamine hydrochloride] had a melting point of 190 to 194 °C. In addition, the Ki on 5-HT2A receptor is 9.35 ± 0.831 µM. In addition, on 5-HT6 receptor, the Ki came out at 1.96 ± 0.269 µM. Also, the Ki at 5-HT7 receptor is > 1 µM and 4.13 µM.

`Cl.Nc1nc(NCCc2c[nH]c3ccccc23)nc(NCCn2c(C(F)(F)F)nc3ccccc32)n1` [Compound 19, N^2-(2-(1H-Indol-3-yl)ethyl)-N^4-(2-(2-(Trifluoromethyl)-1H-Benzo[d]imidazol-1-yl)ethyl)-1,3,5-Triazine-2,4,6-Triamine Hydrochloride] came in with a melting point of 108 to 110 °C. In addition, the Ki at 5-HT2A receptor was 4.03 ± 0.537 µM. For the same compound, the Ki at 5-HT6 receptor stood at 0.825 ± 0.072 µM. Moreover, the Ki at 5-HT7 receptor is > 1 µM and 3.46 µM. Besides, at 5-HT1A receptor, the Ki was found to be 76.2 µM.

On to `Cl.Nc1nc(NCCc2c[nH]c3ccccc23)nc(Nc2ccc(F)cc2)n1` [Compound 21, N^2-(2-(1H-Indol-3-yl)ethyl)-N^4-(4-Fluorophenyl)-1,3,5-Triazine-2,4,6-Triamine Hydrochloride], for which the melting point is 232 to 235 °C. Moreover, at 5-HT2A receptor, the Ki was 0.884 ± 0.073 µM. For the same compound, the Ki on 5-HT6 receptor came to 1.77 ± 0.243 µM. For the same compound, at 5-HT7 receptor, the “activity” value is “inactive” and the Ki turned out to be 2.05 ± 0.419 µM. For the same compound, the Ki at D2 receptor stood at 7.03 ± 0.439 µM.

As for `COc1ccc(Nc2nc(N)nc(NCCc3c[nH]c4ccccc34)n2)cc1.Cl` [Compound 22, N^2-(2-(1H-Indol-3-yl)ethyl)-N^4-(4-Methoxyphenyl)-1,3,5-Triazine-2,4,6-Triamine Hydrochloride], the melting point lay in the range of 194 to 196 °C. Moreover, the Ki at 5-HT2A receptor stood at 3.11 ± 0.438 µM. The Ki at 5-HT6 receptor amounted to 3.74 ± 0.539 µM. At 5-HT7 receptor, the “activity” value is “weakly active” and the Ki turned out to be 0.727 ± 0.107 µM. Moreover, at 5-HT1A receptor, the Ki came to 79.8 µM.

Usually Ki stands for a measure of affinity in units of concentration, obtained from inhibition or displacement. In general, melting point refers to the temperature of the solid-liquid transition.
